The OligoGym collection
“And” between values parts separate entries of the source, which are not always exact repeats. Identical values can stand only once. HELM strings list units from the 5' end as sugar, base in round brackets, then linkage (d deoxyribose, r ribose, m 2'-O-methyl, p phosphodiester). Methylation of C is not given here. [moe] = 2'-O-(2-methoxyethyl) (MOE); [cEt] = constrained ethyl (cEt); [sp] = phosphorothioate linkage

Molecular target: HBV
Details: ASO

| Substance | target mRNA inhibition (HepG2, 0.07 µM) | also measured |
| --- | --- | --- |
| RNA1{[moe](T)[sp].[moe](C)[sp].d(C)[sp].d(G)[sp].d(C)[sp].d(A)[sp].d(G)[sp].d(T)[sp].d(A)[sp].d(T)[sp].d(G)[sp].[moe](G)[sp].[moe](A)[sp].[moe](T)[sp].[moe](C)[sp].[moe](G)}$$$$V2.0 | 70% and 62% |  |
| RNA1{[moe](T)[sp].[moe](G)[sp].[moe](A)[sp].[moe](A)[sp].[moe](G)[sp].d(C)[sp].d(G)[sp].d(A)[sp].d(A)[sp].d(G)[sp].d(T)[sp].d(G)[sp].d(C)[sp].d(A)[sp].[moe](C)[sp].[moe](A)}$$$$V2.0 | 59% and 47% |  |
| RNA1{[moe](T)[sp].[moe](G)[sp].[moe](A)[sp].[moe](G)[sp].[moe](G)[sp].[moe](C)[sp].d(A)[sp].d(T)[sp].d(A)[sp].d(G)[sp].d(C)[sp].d(A)[sp].d(G)[sp].d(C)[sp].d(A)[sp].[moe](G)[sp].[moe](G)}$$$$V2.0 | 58% and 44% |  |
| RNA1{[moe](T)[sp].[moe](G)[sp].[moe](A)[sp].d(A)[sp].d(G)[sp].d(C)[sp].d(G)[sp].d(A)[sp].d(A)[sp].d(G)[sp].d(T)[sp].d(G)[sp].[moe](C)[sp].[moe](A)[sp].[moe](C)[sp].[moe](A)}$$$$V2.0 | 76% and 66% | target mRNA inhibition (HepG2, 0.0092593 µM): 11%; target mRNA inhibition (HepG2, 0.0277778 µM): 22%; target mRNA inhibition (HepG2, 0.0833333 µM): 44%; target mRNA inhibition (HepG2, 0.25 µM): 64% |
| RNA1{[moe](T)[sp].[moe](G)[sp].[moe](A)[sp].d(G)[sp].d(A)[sp].d(G)[sp].d(A)[sp].d(A)[sp].d(G)[sp].d(T)[sp].d(C)[sp].d(C)[sp].d(A)[sp].[cEt](C)[sp].[cEt](C)[sp].[cEt](A)}$$$$V2.0 | 35% and 41% |  |
| RNA1{[moe](T)[sp].[moe](G)[sp].[moe](C)[sp].d(A)[sp].d(G)[sp].d(A)[sp].d(G)[sp].d(G)[sp].d(T)[sp].d(G)[sp].d(A)[sp].d(A)[sp].[moe](G)[sp].[moe](C)[sp].[moe](G)[sp].[moe](A)[sp].[moe](A)}$$$$V2.0 | 75% and 63% |  |
| RNA1{[moe](T)[sp].[moe](G)[sp].[moe](C)[sp].d(A)[sp].d(G)[sp].d(A)[sp].d(G)[sp].d(G)[sp].d(T)[sp].d(G)[sp].d(A)[sp].d(A)[sp].d(G)[sp].[cEt](C)[sp].[cEt](G)[sp].[cEt](A)}$$$$V2.0 | 78% and 79% |  |
| RNA1{[moe](T)[sp].[moe](G)[sp].[moe](G)[sp].[moe](A)[sp].d(G)[sp].d(C)[sp].d(C)[sp].d(A)[sp].d(C)[sp].d(C)[sp].d(A)[sp].d(G)[sp].d(C)[sp].[moe](A)[sp].[moe](G)[sp].[moe](G)}$$$$V2.0 | 47% and 35% |  |
| RNA1{[moe](T)[sp].[moe](G)[sp].[moe](G)[sp].d(A)[sp].d(G)[sp].d(C)[sp].d(C)[sp].d(A)[sp].d(C)[sp].d(C)[sp].d(A)[sp].d(G)[sp].[moe](C)[sp].[moe](A)[sp].[moe](G)[sp].[moe](G)}$$$$V2.0 | 58% and 57% |  |
| RNA1{[moe](T)[sp].[moe](G)[sp].[moe](G)[sp].d(A)[sp].d(G)[sp].d(C)[sp].d(C)[sp].d(A)[sp].d(C)[sp].d(C)[sp].d(A)[sp].d(G)[sp].d(C)[sp].[cEt](A)[sp].[cEt](G)[sp].[cEt](G)}$$$$V2.0 | 60% and 67% |  |
| RNA1{[moe](T)[sp].[moe](G)[sp].d(C)[sp].d(A)[sp].d(G)[sp].d(A)[sp].d(G)[sp].d(G)[sp].d(T)[sp].d(G)[sp].d(A)[sp].[moe](A)[sp].[moe](G)[sp].[moe](C)[sp].[moe](G)[sp].[moe](A)[sp].[moe](A)}$$$$V2.0 | 39% and 45% |  |
| RNA1{[moe](T)[sp].[moe](T)[sp].[moe](C)[sp].[moe](C)[sp].d(G)[sp].d(C)[sp].d(A)[sp].d(G)[sp].d(T)[sp].d(A)[sp].d(T)[sp].d(G)[sp].d(G)[sp].[moe](A)[sp].[moe](T)[sp].[moe](C)[sp].[moe](G)}$$$$V2.0 | 56% and 38% |  |
